In PubChem BioAssay (NCI):
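These data come from cells grown in 96-well plates and exposed to compound for 48 hours at five concentrations. GI50 = concentration required for 50% inhibition of growth. TGI: total growth inhibition.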

Assays:
Assay in all cases: inhibition of tumour cell growth, NCI panel, 48 h
A549 NSCLC = system: A549 NSCLC
UO-31 renal = system: UO-31 renal
TK-10 renal = system: TK-10 renal
SW-620 colon = system: SW-620 colon
EKVX NSCLC = system: EKVX NSCLC
NCI-H23 lung = system: NCI-H23 lung
NCI-H522 lung = system: NCI-H522 lung
SF-268 CNS = system: SF-268 CNS
T-47D breast = system: T-47D breast
HS 578T breast = system: HS 578T breast

Compound | TGI (A549 NSCLC) [µM] | TGI (UO-31 renal) [µM] | TGI (TK-10 renal) [µM] | TGI (SW-620 colon) [µM] | TGI (EKVX NSCLC) [µM] | TGI (NCI-H23 lung) [µM] | TGI (NCI-H522 lung) [µM] | TGI (SF-268 CNS) [µM] | TGI (T-47D breast) [µM] | TGI (HS 578T breast) [µM] | GI50 (A549 NSCLC) [µM] | GI50 (UO-31 renal) [µM] | GI50 (TK-10 renal) [µM] | GI50 (SW-620 colon) [µM] | GI50 (HS 578T breast) [µM] | GI50 (T-47D breast) [µM] | GI50 (EKVX NSCLC) [µM] | GI50 (NCI-H23 lung) [µM] | GI50 (SF-268 CNS) [µM]
Cn1cc(C(=O)c2ccccc2)cc(C(=O)c2ccccc2)c1=O | > 100 | > 100 | > 100 | > 100 | > 100 | > 100 | > 100 | > 100 | – | – | – | – | – | – | – | – | – | – | –
C/C(N=NS(=O)(=O)c1ccc([N+](=O)[O-])cc1)=C1\C=CC=CN1O | > 100 | > 100 | > 100 | > 100 | > 100 | > 100 | > 100 | > 100 | – | – | – | – | – | – | – | – | – | – | –
COc1ccc(NC(=O)CC(=O)n2nc(C)c(N=Nc3ccccc3C(=O)O)c2C)cc1 | > 100 | > 100 | > 100 | > 100 | > 100 | > 100 | > 100 | > 100 | – | – | – | – | – | – | – | – | – | – | –
C=C(Cl)C(Cl)(CCl)CCC(Br)C(C)(C)Br (stereo unspecified) | > 10 | > 10 | > 10 | > 10 | > 10 | > 10 | > 10 | > 10 | > 10 | – | – | – | – | – | – | – | – | – | –
C[C@H](CCC1SC1(C)C)C1CCC2(C)C3=C(CC[C@]12C)[C@@]1(C)CC[C@H](O)C(C)(C)C1CC3 (stereo partly specified) | > 100 | > 100 | > 100 | > 100 | > 100 | > 100 | > 100 | > 100 | – | – | – | – | – | – | – | – | – | – | –
CC(C)C1=CC(=O)[C@@](C)(C2[C@H](O)C[C@@]3(C)[C@@H]4CC=C5[C@@H](CC[C@@H](OC6OCC(O)C(O)C6OC6OC(C)C(O)C(O)C6O)C5(C)C)[C@]4(C)C(=O)C[C@]23C)O1 (stereo partly specified) | > 100 | > 100 | – | > 100 | > 100 | > 100 | > 100 | > 100 | > 100 | > 100 | – | – | – | – | – | – | – | – | –
C#CCN(Cc1ccc2nc(-c3ccccc3)c(N)nc2c1)c1cc(OC)c(OC)c(OC)c1 | > 100 | 69.3 | > 100 | > 100 | > 100 | > 100 | 64.3 | > 100 | – | – | – | – | – | – | – | – | – | – | –
O=c1[nH]c(=O)n(COCc2ccccc2)cc1Nc1ccc(Br)cc1 | > 100 | > 100 | – | > 100 | > 100 | > 100 | – | > 100 | – | > 100 | – | – | – | – | – | – | – | – | –
COc1cc2c(/C=C3/C(=O)Nc4ccc(Cl)cc43)c(Cl)[nH]c2cc1C | 16.2 | 15.8 | 8.48 | 19.7 | – | 7.13 | 7.01 | 43.7 | 26.9 | 19 | – | – | – | – | – | – | – | – | –
COc1cc(-c2c3c(cc4c2OCO4)[C@@H](Nc2ccc(-c4ccc(-c5ccc(N[C@@H]6c7cc8c(cc7C(c7cc(OC)c(O)c(OC)c7)[C@H]7C(=O)OC[C@H]67)OCO8)cc5)cc4)cc2)[C@H]2COC(=O)[C@@H]2C3)cc(OC)c1O (stereo partly specified) | 12.6 | 13.1 | 8.59 | 10.8 | 25.2 | 20.7 | – | 10.9 | 65.2 | > 100 | – | – | – | – | – | – | – | – | –
O=C(/C=C(\C(=O)c1cccs1)c1cccs1)c1ccc(C(=O)/C=C(\C(=O)c2cccs2)c2cccs2)cc1 | > 100 | > 100 | > 100 | > 100 | > 100 | – | – | > 100 | > 100 | > 100 | – | – | – | – | – | – | – | – | –
COC(=O)C1(SC)C2CCC3C2CCC31 (stereo unspecified) | > 100 | > 100 | – | > 100 | > 100 | > 100 | > 100 | > 100 | > 100 | > 100 | – | – | – | – | – | – | – | – | –
CC(C)(NC(=O)OCc1ccccc1)C(=O)OC(=O)C(C)(C)NC(=O)OCc1ccccc1 | > 100 | > 100 | – | > 100 | > 100 | > 100 | > 100 | – | > 100 | > 100 | – | – | – | – | – | – | – | – | –
COc1cc(C(C)O)c[n+](CCC2CNc3ccccc32)c1 (stereo unspecified) | > 100 | > 100 | – | > 100 | > 100 | > 100 | > 100 | 93 | – | – | – | – | – | – | – | – | – | – | –
COc1nc2ccc(COc3ccc(C(=O)O)cc3)cc2nc1OC | > 100 | > 100 | – | > 100 | > 100 | > 100 | > 100 | > 100 | > 100 | – | – | – | – | – | – | – | – | – | –
CCCCCCCCCCCCCC[n+]1ccc(C)cc1 | 2.94 | 3.79 | 2.11 | 3.88 | 1.42 | 2.51 | – | 1.7 | 10.6 | 8.8 | 1.53 | 1.38 | 0.627 | 0.945 | 2.39 | 0.831 | 0.296 | 0.504 | 0.447
